Reference: patent US20240075017A1 (priority 2021, published 2024)

Tested on: SARS-CoV-2 (B.1.351, beta variant)
Design: species or system C57BL/6 mice
Conditions: mouse, in vivo

## Nc1nccc2c1ncn2[C@@H]1C=C(CO)[C@@H](O)[C@H]1O [DZNep, 3-deazaneplanocin A]
  abundance of viral transcripts N, M and E in lung RNA by RT-qPCR: significant DZNep-dependent reduction in abundance of viral transcripts
  lung infectious viral load (titration of lung homogenate supernatant on Vero E6 cells): significant reduction of the viral load in the lungs
